Several values for one entry are separate records, joined by “and”; a condition that tells them apart may be missing. Equal values may be shown once. Inconclusive results and toxic doses are left out. How the source made its calls: active means survival T/C of 150% or more; inactive means T/C below 125% in these data.
Test system: P388 leukemia ip, CD2F1 mice, survival T/C
Test: NCI In Vivo Anticancer Drug Screen. Data for tumor model P388 Leukemia (intraperitoneal) in CD2F1 (CDF1) mice
Settings: endpoint: median survival time, higher = longer survival
Outline: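 Mice carrying the transplanted tumor received test compound or vehicle. Survival was recorded in each group, and the value is the treated-group measurement divided by that of the vehicle-treated control group.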

[1] = dose: 50.0 mg/kg/injection, schedule: Q01DX009 (ip), vehicle: saline with Tween-80
[2] = dose: 100.0 mg/kg/injection, schedule: Q01DX009 (ip), vehicle: saline with Tween-80
[3] = dose: 6.25 mg/kg/injection, schedule: Q01DX009 (ip), vehicle: saline with Tween-80
[4] = dose: 100.0 mg/kg/injection, schedule: Q01DX009 (ip), vehicle: Klucel (hydroxypropylcellulose) (HPC)
[5] = dose: 50.0 mg/kg/injection, schedule: Q01DX009 (ip), vehicle: saline
[6] = dose: 200.0 mg/kg/injection, schedule: Q01DX009 (ip), vehicle: saline
[7] = dose: 200.0 mg/kg/injection, schedule: Q01DX009 (ip), vehicle: saline with Tween-80
[8] = dose: 12.5 mg/kg/injection, schedule: Q01DX009 (ip), vehicle: saline with Tween-80
[9] = dose: 25.0 mg/kg/injection, schedule: Q01DX009 (ip), vehicle: saline with Tween-80
[10] = dose: 50.0 mg/kg/injection, schedule: Q01DX005 (ip), vehicle: saline with Tween-80

Measured: T/C

NC(=O)CCCCCOc1ccc(OC2OC(CO)C(O)C(O)C2O)cc1 (stereo unspecified)
inactive: dose: 100.0 mg/kg/injection, schedule: Q04DX002 (ip), vehicle: saline with Tween-80 100 % of control | dose: 200.0 mg/kg/injection, schedule: Q04DX002 (ip), vehicle: saline with Tween-80 102 % of control | dose: 400.0 mg/kg/injection, schedule: Q04DX002 (ip), vehicle: saline with Tween-80 104 % of control

COc1ncc(Br)cc1C(=O)NCCc1ccc(S(=O)(=O)NC(=O)NC2CCCCC2)cc1
inactive: [1] 99 % of control | [2] 92 % of control

C/C=C(/C)C(=O)O[C@H]1CC[C@@]2(C)[C@@H]3CC[C@H]4[C@]5(O)C[C@H](O)[C@@]6(O)[C@@H](CN7C[C@@H](C)CC[C@H]7[C@@]6(C)O)[C@]5(O)C[C@@]42O[C@@]13O
inactive: dose: 0.39 mg/kg/injection, schedule: Q01DX009 (ip), vehicle: saline with Tween-80 97 % of control | dose: 0.5 mg/kg/injection, schedule: Q01DX009 (ip), vehicle: saline 95 % of control | dose: 0.78 mg/kg/injection, schedule: Q01DX009 (ip), vehicle: saline with Tween-80 101 % of control | dose: 1.0 mg/kg/injection, schedule: Q01DX009 (ip), vehicle: saline 109 % of control | dose: 1.56 mg/kg/injection, schedule: Q01DX009 (ip), vehicle: saline with Tween-80 101 % of control | dose: 2.0 mg/kg/injection, schedule: Q01DX009 (ip), vehicle: saline 109 % of control | dose: 3.12 mg/kg/injection, schedule: Q01DX009 (ip), vehicle: saline with Tween-80 97 % of control | [3] 88 % of control

Cn1c(C(C)(C)OC(=O)Oc2ccccc2)cnc1[N+](=O)[O-]
inactive: [4] 96 % of control | dose: 200.0 mg/kg/injection, schedule: Q01DX009 (ip), vehicle: Klucel (hydroxypropylcellulose) (HPC) 100 % of control

C=C(C)C(=O)OC1CCC2(C)C(CCC3C2CCC2(C)C(c4ccc(=O)oc4)CCC32O)C1 (stereo unspecified)
inactive: dose: 12.5 mg/kg/injection, schedule: Q01DX009 (ip), vehicle: saline 86 % of control | dose: 25.0 mg/kg/injection, schedule: Q01DX009 (ip), vehicle: saline 98 % of control | [5] 101 % of control and 94 % of control | [6] 95 % of control

CCCCCCC(/C=C/c1ccc(N(C)C)cc1)=N\O
inactive: [2] 93 % of control | [7] 93 % of control

COC(=O)Nc1ccc(NC(=O)OC)c2c1C(=O)c1ccccc1C2=O
inactive: dose: 50.0 mg/kg/injection, schedule: Q01DX005 (ip), vehicle: saline 95 % of control | dose: 100.0 mg/kg/injection, schedule: Q01DX005 (ip), vehicle: saline 95 % of control | dose: 200.0 mg/kg/injection, schedule: Q01DX005 (ip), vehicle: saline 88 % of control

O=c1oc2ccccc2c2c1cnn2-c1ccccc1
inactive: dose: 60.0 mg/kg/injection, schedule: Q01DX005 (ip), vehicle: Klucel (hydroxypropylcellulose) (HPC) 103 % of control | dose: 120.0 mg/kg/injection, schedule: Q01DX005 (ip), vehicle: Klucel (hydroxypropylcellulose) (HPC) 105 % of control | dose: 240.0 mg/kg/injection, schedule: Q01DX005 (ip), vehicle: Klucel (hydroxypropylcellulose) (HPC) 104 % of control

C=C(CC(=O)Nc1nc(C)c(C(=O)OC)s1)C(=O)O
inactive: [8] 107 % of control | [9] 100 % of control | [1] 105 % of control | [5] 99 % of control | [6] 96 % of control

Nc1nc(=O)[nH]s1
inactive: [3] 98 % of control | [8] 87 % of control and 94 % of control | [2] 95 % of control | [7] 90 % of control

CCOC(=O)C1CCCN(C)C1 (stereo unspecified)
inactive: dose: 100.0 mg/kg/injection, schedule: Q04DX003 (ip), vehicle: Klucel (hydroxypropylcellulose) (HPC) 104 % of control | dose: 200.0 mg/kg/injection, schedule: Q04DX003 (ip), vehicle: Klucel (hydroxypropylcellulose) (HPC) 100 % of control | dose: 400.0 mg/kg/injection, schedule: Q04DX003 (ip), vehicle: Klucel (hydroxypropylcellulose) (HPC) 100 % of control

CCCOn1nnc2cc(Cl)ccc21
inactive: [3] 102 % of control | [8] 96 % of control | [9] 99 % of control

COC1CCCCC1C(=O)C(C#N)C1CCCCC1C1CCCCC1 (stereo unspecified)
inactive: [10] 100 % of control | dose: 100.0 mg/kg/injection, schedule: Q01DX005 (ip), vehicle: saline with Tween-80 98 % of control | dose: 200.0 mg/kg/injection, schedule: Q01DX005 (ip), vehicle: saline with Tween-80 96 % of control

CC1N[P+]2(Nc3ccccc3O2)OC1=O (stereo unspecified)
inactive: dose: 100.0 mg/kg/injection, schedule: Q01DX001 (ip), vehicle: Klucel (hydroxypropylcellulose) (HPC) 103 % of control | dose: 200.0 mg/kg/injection, schedule: Q01DX001 (ip), vehicle: Klucel (hydroxypropylcellulose) (HPC) 103 % of control | dose: 400.0 mg/kg/injection, schedule: Q01DX001 (ip), vehicle: Klucel (hydroxypropylcellulose) (HPC) 106 % of control

CNS(=O)(=O)c1c([N+](=O)[O-])ncn1C
inactive: dose: 12.5 mg/kg/injection, schedule: Q01DX009 (ip), vehicle: Klucel (hydroxypropylcellulose) (HPC) 109 % of control | dose: 25.0 mg/kg/injection, schedule: Q01DX009 (ip), vehicle: Klucel (hydroxypropylcellulose) (HPC) 109 % of control and 115 % of control | dose: 50.0 mg/kg/injection, schedule: Q01DX009 (ip), vehicle: Klucel (hydroxypropylcellulose) (HPC) 113 % of control | [4] 123 % of control

O=C1NC2C(CC(O)C(O)C2O)c2cc3c(c(O)c21)OCO3 (stereo unspecified)
inactive: dose: 0.19 mg/kg/injection, schedule: Q01DX009 (ip), vehicle: saline + alcohol 103 % of control | dose: 0.38 mg/kg/injection, schedule: Q01DX009 (ip), vehicle: saline + alcohol 111 % of control | dose: 0.75 mg/kg/injection, schedule: Q01DX009 (ip), vehicle: saline + alcohol 116 % of control | dose: 1.44 mg/kg/injection, schedule: Q01DX009 (ip), vehicle: saline + alcohol 107 % of control | dose: 1.5 mg/kg/injection, schedule: Q01DX009 (ip), vehicle: saline + alcohol 117 % of control | dose: 2.88 mg/kg/injection, schedule: Q01DX009 (ip), vehicle: saline + alcohol 115 % of control | dose: 5.75 mg/kg/injection, schedule: Q01DX009 (ip), vehicle: saline + alcohol 115 % of control | dose: 11.5 mg/kg/injection, schedule: Q01DX009 (ip), vehicle: saline + alcohol 115 % of control

CCN(CC)CCNCc1cc(Cl)c2cccnc2c1O
inactive: [5] 93 % of control | dose: 100.0 mg/kg/injection, schedule: Q01DX009 (ip), vehicle: saline 106 % of control

C[N+](C)=c1ccc2nc3c(cc(NCCCNc4cc5oc6cc(=[N+](C)C)ccc-6nc5c5ccccc45)c4ccccc43)oc-2c1
inactive: dose: 60.0 mg/kg/injection, schedule: Q01DX005 (ip), vehicle: saline with Tween-80 106 % of control | dose: 120.0 mg/kg/injection, schedule: Q01DX005 (ip), vehicle: saline with Tween-80 113 % of control | dose: 240.0 mg/kg/injection, schedule: Q01DX005 (ip), vehicle: saline with Tween-80 103 % of control

CC(C)NC(=O)OCc1c(COC(=O)NC(C)C)c(-c2ccc(Cl)c(Cl)c2)n2c1CS(=O)(=O)C2
inactive: dose: 6.25 mg/kg/injection, schedule: Q01DX005 (ip), vehicle: saline with Tween-80 101 % of control | dose: 12.5 mg/kg/injection, schedule: Q01DX005 (ip), vehicle: saline with Tween-80 100 % of control and 87 % of control | [10] 86 % of control

Nc1nc(-c2ccc([N+](=O)[O-])cc2)c([N+](=O)[O-])c(=O)[nH]1
inactive: dose: 3.0 mg/kg/injection, schedule: Q01DX009 (ip), vehicle: saline with Tween-80 105 % of control | dose: 6.0 mg/kg/injection, schedule: Q01DX009 (ip), vehicle: saline with Tween-80 110 % of control | dose: 12.0 mg/kg/injection, schedule: Q01DX009 (ip), vehicle: saline with Tween-80 110 % of control
